Structures can show the parent of a compound that is named as a salt. Marks after values point to notes of the source that are not given here.
Assays:
[1] = test system: normal adult human dermal fibroblasts; assay: Neosynthesis of hyaluronic acid in normal adult human dermal fibroblasts cultured in monolayers (ELISA on culture media); type: cell-based; settings: incubation 24 hours
Procedure: (§1) Confluent monolayers of normal human dermal fibroblasts were obtained by culturing cells obtained from abdominoplasty performed on a person. The fibroblasts were isolated by enzymatic digestion using Dispase and collagenase and were then cultured in DMEM (Dulbecco's Modified Eagle's Medium) and Ham's F12 medium in (1:1) ratio containing 10% of fetal calf serum, antibiotics and amphotericin B.
The reference activator used is transforming growth factor β (TGF-β) at a concentration of 10 ng/ml.
(§2) The fibroblasts were incubated for 24 hours at 37° C., under a humid atmosphere and 5% CO2, in the absence (culture medium only) or in the presence of the reference product, or of increasing concentrations of test products (10, 100 and 1000 μg/ml) for both products. The test products were dissolved directly in the culture medium.
At the end of the incubation period, the hyaluronic acid contained in the culture media was quantified using a sensitive and specific ELISA kit.
At the end of the incubation period, the proteins contained in the cellular lysates were quantified by Bradford's spectrocolorimetric method.
The results are given in the form of ng of hyaluronic acid per μg of total proteins of the cell lawn (mean±standard deviation, SD). The statistical significance of the differences observed between the “Control” and “Reference Product” conditions was evaluated by a Student test (Student t-test). The statistical significance of the differences observed between the “Control” and “Test Products” conditions was evaluated product by product, by a one-way analysis of variance (One Way ANOVA or One Way Anova on Ranks+), followed, when necessary, by a Holm-Sidak or Dunn's test (*: p<0.05).

[2] = test system: normal adult human dermal fibroblasts; assay: Neosynthesis of elastin in normal adult human dermal fibroblasts cultured in monolayers (spectrocolorimetric method on culture media); type: cell-based; settings: incubation 96 hours; for increase in the neosynthesis of elastin: versus control
Procedure: as §1, with “The fibroblasts are isolated by” for “The fibroblasts were isolated by”, “collagenase and then cultivated” for “collagenase and were then cultured”, “and then cultivated in DMEM” for “were then cultured in DMEM”
The reference activator used is ascorbic acid at a concentration of 100 μg/ml.
as §2, with “96” for “24”, “under” for “under a”, “(10;” for “(10,”
At the end of the incubation time, the elastin contained in the culture media was quantified by a spectrocolorimetric method.
At the end of the incubation time, the proteins contained in the cellular lysates were quantified by Bradford's spectrocolorimetric method.
The results are given in the form of ng of elastin per μg of total proteins of the cell lawn (mean±standard deviation, SD). The statistical significance of the differences observed between the “Control” and “Reference Product” conditions was evaluated by a Student test (Student t-test). The statistical significance of the differences observed between the “Control” and “Test Products” conditions was evaluated product by product, by a one-way analysis of variance (One Way ANOVA or One Way Anova on Ranks+), followed, when necessary, by a Holm-Sidak or Dunn's test (*: p<0.05).

Compound	production of hyaluronic acid, % control ([1]; 10 μg/ml)	production of hyaluronic acid, mean value ([1]; 10 μg/ml)	production of hyaluronic acid, % control ([1]; 100 μg/ml)	production of hyaluronic acid, mean value ([1]; 100 μg/ml)	increase in the neosynthesis of hyaluronic acid ([1]; 100 μg/ml, versus control)	production of hyaluronic acid, % control ([1]; 1000 μg/ml)	production of hyaluronic acid, mean value ([1]; 1000 μg/ml)	increase in the neosynthesis of hyaluronic acid ([1]; 1000 μg/ml, versus control)	production of elastin, % control ([2]; 10 μg/ml)	production of elastin, mean value ([2]; 10 μg/ml)	production of elastin, % control ([2]; 100 μg/ml)	production of elastin, mean value ([2]; 100 μg/ml)	increase in the neosynthesis of elastin ([2]; 100 μg/ml)	production of elastin, % control ([2]; 1000 μg/ml)	production of elastin, mean value ([2]; 1000 μg/ml)	increase in the neosynthesis of elastin ([2]; 1000 μg/ml)	other results
O=C(O)C(=O)C(O)C(O)C(O)CO (stereo not shown) [2KO, calcium salt of 2-keto-(D)-gluconic acid]	101.2 % control	18.5 ng of hyaluronic acid per μg of total proteins	136.3 % control	25.0* ng of hyaluronic acid per μg of total proteins	36.3%	192.7 % control	35.3* ng of hyaluronic acid per μg of total proteins	92.7%	139.7 % control	12.6* ng of elastin per μg of total proteins	144.6 % control	13.1* ng of elastin per μg of total proteins	44.6%	135.8 % control	12.3* ng of elastin per μg of total proteins	35.8%	increase in the neosynthesis of elastin ([2]; 10 μg/ml): 39.7%
O=C([O-])C(O)C(O)C(O)C(=O)CO.[K+] (stereo not shown) [5KO, potassium salt of 5-keto-(D)-gluconic acid]	123.3 % control	22.6* ng of hyaluronic acid per μg of total proteins	144.9 % control	26.6* ng of hyaluronic acid per μg of total proteins	44.9%	144.0 % control	26.4* ng of hyaluronic acid per μg of total proteins	44.0%	104.8 % control	9.5 ng of elastin per μg of total proteins	118.9 % control	10.7 ng of elastin per μg of total proteins	18.9%	184.4 % control	16.7* ng of elastin per μg of total proteins	84.4%	increase in the neosynthesis of hyaluronic acid ([1]; 10 μg/ml, versus control): 23.3%
O=C1O[C@H]([C@@H](O)CO)C(O)=C1O [Ascorbic acid, ascorbic acid, reference compound]	–	–	–	–	–	–	–	–	–	–	140.3 % control	12.7*** ng of elastin per μg of total proteins	40.3%	–	–	–	–
TGF-β: reference activator, transforming growth factor β (TGF-β), used at 10 ng/ml [reference compound]	–	–	–	–	–	–	–	–	–	–	–	–	–	–	–	–	production of hyaluronic acid, % control ([1]; 10 ng/ml): 226.3 % control; production of hyaluronic acid, mean value ([1]; 10 ng/ml): 41.5*** ng of hyaluronic acid per μg of total proteins; increase in fibroblast production of hyaluronic acid ([1]; 10 ng/ml, versus control): 126.3%

Reference: patent US20120015012A1, “COSMETIC COMPOSITION CONTAINING KETOGLUCONIC ACID DERIVATIVES” (SOLIANCE, priority 2009, published 2012)
